# Source: patent US20250367183A1, “SUBSTANCE FOR PROMOTING REGENERATION AND REPAIR OF ORGANS OF MAMMALS AND USE THEREOF” (INSTITUTE OF ZOOLOGY, CHINESE ACADEMY OF SCIENCES, priority 2022, published 2025)
# Read-outs that look alike come from different tables or passages of the source.
# B1: S100A8/A9: S100A8/A9 heterodimer (Biolegend, 765502), alarmin protein (protein, UniProt P05109 1-93; P06702 1-114, looked up)
# Protein S100-A8: MLTELEKALNSIIDVYHKYSLIKGNFHAVYRDDLKKLLETECPQYIRKKGADVWFKELDINTDGAVNFQEFLILVIKMGVAAHKKSHEESHKE
# Protein S100-A9: MTCKMSQLERNIETIINTFHQYSVKLGHPDTLNQGEFKELVRKDLQNFLKKENKNEKVIEHIMEDLDTNADKQLSFEEFIMLMARLTWASHEKMHEGDEGPGHHHKPGLGEGTP
# B2: interferon (IFN) γ: cytokine interferon γ (protein, UniProt P01579 24-161, looked up)
# Interferon gamma: QDPYVKEAENLKKYFNAGHSDVADNGTLFLGILKNWKEESDRKIMQSQIVSFYFKLFKNFKDDQSIQKSVETIKEDMNVKFFNSNKKKRDDFEKLTNYSVTDLNVQRKAIHELIQVMAELSPAAKTGKRKRSQMLFRG
# Key:
# [1] = tested on: 2 mm diameter mouse ear hole; assay: ear hole trauma mouse model, 2 mm diameter ear puncher; assay type: in vivo, C57BL/6 mice; conditions: for healing of 2 mm ear hole: ferroptosis/autophagy inhibitors 10-20 mg/kg, measured 21 days after damage, n≥8 (FIG. 3); for healing of the 2 mm ear hole: treated 21 days, vs Vehicle (FIG. 1B)
# [2] = tested on: 4 mm diameter mouse ear hole; parameters: species or system mice; conditions: in vivo
# [3] = tested on: ISG genes
# [4] = tested on: overall protein translation; assay type: cell-based
molecule,measurement,setting,value
O=C1OC(COc2ccccc2[N+](=O)[O-])CC1Cc1ccccc1 (stereo not shown) [3BDO],healing of 2 mm ear hole,[1],Neither inhibitors of ferroptosis nor autophagy could promote the healing of the ear hole like CHX
"COc1ccc(C[C@H]2NC[C@H](O)[C@H]2OC(C)=O)cc1 [Ani, anisomycin]",healing of the 2 mm ear hole,[1]; Ani 10 mg/kg,significantly promote the healing of the ear hole
Cc1cc(Nc2cc(Cl)nc(Oc3ccc([N+](=O)[O-])cc3)n2)n[nH]1 [Autophinib],healing of 2 mm ear hole,[1],Neither inhibitors of ferroptosis nor autophagy could promote the healing of the ear hole like CHX
"C[C@@H]1C[C@@H]([C@H](O)CC2CC(=O)NC(=O)C2)C(=O)[C@@H](C)C1 [CHX, 4-((R)-2-((1S,3S,5S)-3,5-dimethyl-2-oxocyclohexyl)-2-hydroxyethyl)piperidine-2,6-dione]",HE staining of auricle tissue,[1]; CHX 20 mg/kg (FIG. 1E),the trauma had completely healed
same,HE staining of auricle tissue,"[1]; CHX 20 mg/kg, 15th day after trauma (FIG. 1F)",healed the tissue after damage and formed granulation tissue
same,KI67 immunohistochemical staining of auricle tissue,"[1]; CHX 20 mg/kg, 7 days, basal cells (FIG. 1G)",expressed a large amount of KI67
same,closure of 2 mm ear hole wound,"[1]; CHX 20 mg/kg, 30 days (FIG. 1D)",completely closed
same,"HE staining of auricle tissue, regenerated tissues","[1]; CHX 20 mg/kg, 180 days after ear hole closure (FIG. 1H)","regeneration of tissues and tissue derivatives such as hair follicles, glands, cartilage, muscles and blood vessels"
same,healing of the 2 mm ear hole,[1]; CHX 20 mg/kg,significantly promote the healing of the ear hole
same,closure of 2 mm ear hole wound,"[1]; CHX greater than 8 mg/kg, after three weeks of treatment (FIG. 1C)",completely closed
same,closure of 2 mm ear hole,"[1]; each concentration of CHX, intraperitoneal, n≥8 (FIG. 1C)",promoted the closure of a 2 mm diameter of ear holes
same,healing effect by administration manner,"[1]; oral gavage and intraperitoneal injection, 3 weeks (FIG. 1I)",different manners of administration had the effect of promoting regeneration
same,wound area of 4 mm ear hole,[2],significantly reduced
same,ISG gene expression,[3]; fibroblasts and macrophages,upregulate the expression of classical ISGs
Cn1nc(C(C)(C)C)cc1NC(=O)Nc1ccc(Oc2ccncc2)cc1 [MAPK13-IN-1],HE staining of ear hole,[1]; MAPK13-IN-1 20 mg/kg (FIG. 9C),the trauma was almost completely healed
same,Masson staining of ear hole,"[1]; MAPK13-IN-1, 21 days of treatment (FIG. 9D)",Obvious regeneration of muscle fiber bundles was observed
same,ISG gene expression,"[3]; FIG. 9B, cell type not given",promote the ISG gene expression
O=C1N[C@@H]2C(=C[C@H](O)[C@@H](O)[C@H]2O)c2cc3c(c(O)c21)OCO3 [Narciclasine],"regenerated tissues in closed ear holes (histochemical, Masson)","[1]; Narciclasine 1-3 mg/kg (FIG. 5F, 5G)","regenerate tissues and tissue derivatives such as hair follicles, glands, cartilage and muscles"
same,healing of 2 mm ear holes,"[1]; Narciclasine 1-3 mg/kg, intraperitoneal (FIG. 5D, 5E)",significantly promote the healing of 2 mm ear holes
same,inhibition of overall protein translation,[4],significantly inhibit the overall protein translation
same,ISG gene expression,[3]; fibroblasts and macrophages,significantly promoted the expression of ISG genes
O=C1N[C@H]2[C@H](O)[C@H](O)[C@@H](O)[C@H](O)[C@@H]2c2cc3c(c(O)c21)OCO3 [Pancratistatin],HE and Masson staining of ear hole,"[1]; mouse, in vivo",completely closed and identified as a regeneration event
same,closure of 2 mm ear hole,"[1]; mouse, in vivo",the ear hole was completely closed
same,inhibition of overall protein translation,[4],significantly inhibit overall protein translation
same,ISG gene expression,[3],significantly promote the ISG gene expression
O=C(Nc1ccc(C(O)(C(F)(F)F)C(F)(F)F)cc1)c1ccc(C(F)(F)F)cc1 [SR1078],healing of ear holes,"[1]; SR1078 1 mg/kg, 21 days after trauma, n≥7 (FIG. 10A)",significantly inhibited regeneration
O=S(=O)(Nc1ccc(C(O)(C(F)(F)F)C(F)(F)F)cc1)c1cccs1 [SR3335],healing of ear holes,"[1]; SR3335 10 mg/kg, 21 days after trauma, n≥7 (FIG. 10A)",promoted the ear holes
same,HE staining of ear hole,[1]; SR3335 (FIG. 10D),the wound was almost completely healed
same,Masson staining of ear hole,"[1]; SR3335, 21 days of treatment (FIG. 10E)","regeneration structures of cartilage, hair follicles, sebaceous glands (arrows), and muscles"
same,ISG gene expression,[3]; fibroblasts and macrophages,promote the ISG gene expression
O=S(=O)(NCCN1CCNCC1)c1ccc(NC2CCCCC2)c(NCc2ccccc2)c1 [UAMC-3203],healing of 2 mm ear hole,[1],Neither inhibitors of ferroptosis nor autophagy could promote the healing of the ear hole like CHX
B1,healing of ear holes,"[1]; S100A8/A9 12.5 μg/kg ip every two days, 35th day after damage (FIG. 8C)",significantly promoted the healing of the ear holes
same,complete closure of ear holes,"[1]; S100A8/A9 12.5 μg/kg, 35th day after damage",one of the ear holes was completely closed
same,"HE and Masson staining, regenerated structures",[1]; S100A8/A9 (FIG. 8D),"regeneration of various tissue structures, such as epidermis, dermis, hair follicles, glands, cartilage"
same,ISG gene expression,"[3]; 5 ng/ml, fibroblasts and macrophages (FIG. 8A, 8B)",significantly promote the ISG gene expression
B2,healing of ear holes,"[1]; IFNγ 50 μg/kg ip once every two days, 35th day after damage (FIG. 7C)",significantly promoted the healing of ear holes after damage
same,ISG gene expression,"[3]; 10 ng/ml, fibroblasts and macrophages (FIG. 7A, 7B)",significantly promote the ISG gene expression
